Assay results as given in PubChem BioAssay (NCI).
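These data come from cells grown in 96-well plates and exposed to compound for 48 hours at five concentrations. TGI: concentration producing complete growth inhibition.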

Tests used:
Assay in all cases: DTP human tumour cell line panel, 48 h
SF-539 CNS = tested on: SF-539 CNS
HOP-92 NSCLC = tested on: HOP-92 NSCLC
OVCAR-5 ovarian = tested on: OVCAR-5 ovarian
OVCAR-3 ovarian = tested on: OVCAR-3 ovarian
UACC-62 melanoma = tested on: UACC-62 melanoma
KM12 colon = tested on: KM12 colon
MCF7 breast = tested on: MCF7 breast
SF-295 CNS = tested on: SF-295 CNS
SK-MEL-28 melanoma = tested on: SK-MEL-28 melanoma
HCT-116 colon = tested on: HCT-116 colon

Row | SMILES | TGI (SF-539 CNS) | TGI (HOP-92 NSCLC) | TGI (OVCAR-5 ovarian) | TGI (OVCAR-3 ovarian) | TGI (UACC-62 melanoma) | TGI (KM12 colon) | TGI (MCF7 breast) | TGI (SF-295 CNS) | TGI (SK-MEL-28 melanoma) | TGI (HCT-116 colon)
1 | O=C(c1ccccc1)c1ccc(C(c2c(O)c3ccccc3oc2=O)c2c(O)c3ccccc3oc2=O)cc1 | > 100 µM | > 64.1 µM | 51.4 µM | > 56.6 µM | 39.5 µM | 37.1 µM | > 100 µM | 53.3 µM | > 73.3 µM | > 80.2 µM
2 | Clc1ccc(-c2nn3c(CCCCCCCCc4nnc5sc(-c6ccc(Cl)cc6)nn45)nnc3s2)cc1 | 52.6 µM | > 100 µM | > 100 µM | 59 µM | > 100 µM | 61.3 µM | > 73.3 µM | 46.6 µM | > 79.7 µM | 75 µM
3 | COc1c2c(c(OC)c3c1c(=O)c1ccccc1n3C)OCO2 | > 90.7 µM | > 100 µM | > 100 µM | > 100 µM | > 100 µM | > 41.9 µM | > 100 µM | > 100 µM | > 100 µM | > 91.6 µM
4 | Clc1ccc(N=C/C=C/Nc2ccc(Cl)cn2)nc1 | 31.3 µM | 30.1 µM | 30 µM | 26.6 µM | 26.2 µM | 21 µM | 31.6 µM | 30.6 µM | 32.9 µM | 25 µM
5 | S=c1ssc2c3ssc(=S)c3n(Cc3ccccc3)c12 | 58.9 µM | > 100 µM | > 100 µM | > 100 µM | > 100 µM | > 100 µM | > 100 µM | > 100 µM | > 100 µM | > 100 µM
6 | CC1=C(/C=C/C(C)=C/C=C/C(C)=C/C(=O)OCC2OC(n3cc(F)c(=O)[nH]c3=O)CC2OC(=O)/C=C(C)/C=C/C=C(C)/C=C/C2=C(C)CCCC2(C)C)C(C)(C)CCC1 (stereo not given) | > 100 µM | 37.1 µM | > 67.6 µM | > 39.5 µM | > 23.8 µM | > 74.7 µM | 36.8 µM | > 40.2 µM | > 77.6 µM | 27.1 µM
7 | CCC1(C)C=Cc2c(cc(OC)c3c(=O)c4ccccc4n(C)c23)O1 (stereo not given) | > 10 µM | > 10 µM | > 10 µM | > 10 µM | > 10 µM | > 10 µM | > 10 µM | > 10 µM | > 10 µM | > 10 µM
8 | CCOC(=O)C1(C(=O)OCC)C[C@]23OCCC(=O)[C@H]2[C@H]2C(=O)OC(C)(C)O[C@]23C1 | > 100 µM | > 100 µM | > 100 µM | > 100 µM | > 100 µM | > 100 µM | > 100 µM | > 100 µM | > 100 µM | > 100 µM
9 | COc1ccc(OC)c(C2CCc3nc4nc(N)nc(N)c4cc3C2)c1 (stereo not given) | 17.8 µM | 5.76 µM | 23.3 µM | 3.54 µM | 4.18 µM | 5.14 µM | 3.68 µM | 26.5 µM | 6.34 µM | 3.46 µM
10 | CN(C)c1nc(N(C)C)nc(N(C)C)n1 | > 142 µM | > 150 µM | > 150 µM | > 143 µM | > 150 µM | > 150 µM | > 150 µM | > 150 µM | > 150 µM | > 150 µM
11 | Cn1c(=O)oc2cc(C(=O)CSC(=S)N3CCCCCC3)ccc21 | > 100 µM | > 100 µM | > 100 µM | > 100 µM | > 100 µM | > 100 µM | > 100 µM | > 100 µM | > 100 µM | > 100 µM
12 | Brc1cccc(/C=C/CN2CCN(CCOC(c3ccccc3)c3ccccc3)CC2)c1 | 32.4 µM | 17.8 µM | 34.7 µM | 30.2 µM | 31.8 µM | 31.3 µM | 29.5 µM | 32.6 µM | 37.5 µM | 28.9 µM
13 | CCOC(=O)c1nc2cc(N3CCOCC3)c(F)cc2[nH]c1=O | > 100 µM | > 100 µM | > 100 µM | > 100 µM | > 100 µM | > 100 µM | > 100 µM | > 100 µM | > 100 µM | > 100 µM
14 | CCN(CC)CCn1c(C(C)(C)C)nc2ccccc21 | > 100 µM | > 100 µM | > 100 µM | > 100 µM | > 100 µM | > 100 µM | > 100 µM | > 100 µM | > 100 µM | > 100 µM
15 | S=c1[nH]nc(COc2ccc3c(c2)CCCC3)n1/N=C/c1ccc(Cl)cc1 | 32.8 µM | 32.9 µM | 32 µM | 30.7 µM | 33.7 µM | 31.7 µM | 27.9 µM | 33.7 µM | 33.1 µM | 28.6 µM
16 | CCOC(=O)CN1CCNCCN(CC(=O)OCC)CCNCC1 | > 100 µM | > 100 µM | > 100 µM | > 100 µM | > 100 µM | > 100 µM | > 100 µM | > 100 µM | > 100 µM | > 100 µM
17 | CC(=O)OCC1OC(On2ccccc2=S)C(OC(C)=O)C(OC(C)=O)C1OC(C)=O (stereo not given) | > 100 µM | > 100 µM | > 100 µM | > 100 µM | > 100 µM | > 100 µM | > 100 µM | > 100 µM | > 100 µM | > 100 µM
18 | CCOC(=O)c1cc2cc(N(C(C)=O)C(C)=O)ccc2s1 | 92.3 µM | > 100 µM | 73.8 µM | > 100 µM | > 100 µM | > 100 µM | > 100 µM | > 100 µM | > 100 µM | > 100 µM
19 | CNC(=S)/C(=N\Nc1nc[nH]c1C(N)=O)C(N)=S | > 81.3 µM | 99.4 µM | > 100 µM | > 50.2 µM | > 92.8 µM | 24.4 µM | > 100 µM | 41.6 µM | > 100 µM | > 100 µM
20 | COc1ccc2c(c1)C(N)CC2=O (stereo not given) | > 100 µM | > 100 µM | > 100 µM | > 100 µM | > 100 µM | > 100 µM | > 100 µM | > 100 µM | > 100 µM | > 100 µM
21 | Cc1ccc(C)c(NC(=O)C(=O)C2C(=O)C3=C(CC2(C)C)Nc2ccccc2S3)c1 (stereo not given) | > 100 µM | > 100 µM | > 100 µM | > 100 µM | > 100 µM | > 100 µM | > 100 µM | > 100 µM | > 100 µM | > 100 µM
22 | O=C(OCCN=C1c2ccccc2CCc2ccccc21)c1cc([N+](=O)[O-])cc([N+](=O)[O-])c1 | > 31.6 µM | > 31.6 µM | > 31.6 µM | > 31.6 µM | > 31.6 µM | > 31.6 µM | > 31.6 µM | > 31.6 µM | > 31.6 µM | > 31.6 µM
23 | NCc1ccc(-c2ccc(-c3ccc(-c4ccc(CN)s4)s3)s2)s1 | > 100 µM | > 100 µM | > 100 µM | > 100 µM | > 100 µM | > 100 µM | > 100 µM | > 100 µM | > 100 µM | > 100 µM
